Data published in paper PMC4599074 (Drug Design, Development and Therapy, 2015).

Experiments:
MAO-B [1] = molecular target: T1, MAO-B (Homo sapiens, UniProt P27338); assay: biochemical
T1 sequence (P27338 1-520): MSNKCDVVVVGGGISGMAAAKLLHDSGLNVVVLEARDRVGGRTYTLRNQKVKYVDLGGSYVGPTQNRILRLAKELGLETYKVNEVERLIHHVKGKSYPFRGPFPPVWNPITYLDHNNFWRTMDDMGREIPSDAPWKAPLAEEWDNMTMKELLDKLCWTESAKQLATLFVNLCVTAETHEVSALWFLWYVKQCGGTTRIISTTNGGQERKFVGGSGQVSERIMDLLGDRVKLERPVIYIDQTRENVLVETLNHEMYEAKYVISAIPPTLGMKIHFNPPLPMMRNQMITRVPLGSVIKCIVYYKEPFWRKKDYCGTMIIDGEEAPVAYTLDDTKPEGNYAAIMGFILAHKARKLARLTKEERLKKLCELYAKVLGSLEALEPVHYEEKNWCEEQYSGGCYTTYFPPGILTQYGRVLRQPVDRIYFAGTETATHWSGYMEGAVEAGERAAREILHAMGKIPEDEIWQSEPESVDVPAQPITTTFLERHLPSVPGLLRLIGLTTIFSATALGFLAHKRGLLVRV

MAO-B [2] = molecular target: T1, MAO-B; conditions: for SI (selectivity index for the MAO-B isoform): ratio IC50 (MAO-A)/IC50 (MAO-B)
MAO-A [3] = molecular target: T2, MAO-A (Homo sapiens, UniProt P21397); assay: biochemical
T2 sequence (P21397 1-527): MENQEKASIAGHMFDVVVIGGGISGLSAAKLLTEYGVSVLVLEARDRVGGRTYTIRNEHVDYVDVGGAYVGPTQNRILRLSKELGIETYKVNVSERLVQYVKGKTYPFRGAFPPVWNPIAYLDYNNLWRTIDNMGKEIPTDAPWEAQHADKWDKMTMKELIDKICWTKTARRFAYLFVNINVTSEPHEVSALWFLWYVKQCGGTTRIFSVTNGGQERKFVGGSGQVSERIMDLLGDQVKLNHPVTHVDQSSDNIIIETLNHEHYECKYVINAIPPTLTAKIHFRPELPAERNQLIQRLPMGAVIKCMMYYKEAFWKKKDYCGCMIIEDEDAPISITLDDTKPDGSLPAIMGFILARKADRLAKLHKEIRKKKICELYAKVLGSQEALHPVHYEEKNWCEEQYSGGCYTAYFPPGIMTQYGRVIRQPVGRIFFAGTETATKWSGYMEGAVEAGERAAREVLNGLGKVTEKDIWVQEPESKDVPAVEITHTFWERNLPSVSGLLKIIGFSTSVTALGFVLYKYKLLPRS

MAO-B [4] = molecular target: T1, MAO-B; assay: Reversibility of MAO-B inhibition by dialysis of enzyme/inhibitor mixtures; format: biochemical; conditions: for residual MAO-B activity after dialysis (% of negative control): combined with MAO-B 15 minutes, dialyzed 24 hours, 5g at 4× IC50
MAO-A [5] = molecular target: T2, MAO-A; conditions: from IC50 values
MAO-A [6] = molecular target: T2, MAO-A; assay: Reversibility of MAO-A inhibition by dialysis of enzyme/inhibitor mixtures; conditions: for residual MAO-A activity after dialysis (% of negative control): combined with MAO-A 15 minutes, dialyzed 24 hours
MAO-B [7] = molecular target: T1, MAO-B; conditions: read-out: Km for oxidation by MAO-B; substrate Km, previous studies; cited from earlier work
MAO-A [8] = molecular target: T2, MAO-A; conditions: read-out: Km for oxidation by MAO-A; substrate Km, previous studies; cited from earlier work
MAO-B [9] = molecular target: T1, MAO-B; assay: Lineweaver–Burk plots, mode of inhibition and Ki for MAO-B; conditions: Ki for the inhibition of MAO-B, global (shared) fitting to the Michaelis–Menten equation, r2 = 0.99
[10] = undialyzed, inhibitor at 4× IC50

| Molecule | IC50 (MAO-B [1]) | SI (selectivity index for the MAO-B isoform) (MAO-B [2]) | IC50 (MAO-A [3]) | other results |
| --- | --- | --- | --- | --- |
| Cc1ccc(CCOc2ccc3c(c2)OCC3=O)cc1 [5s, 6-[2-(4-Methylphenyl)ethoxy]-2H-1-benzofuran-3-one] | 1.05 ± 0.147 µM | 11 | 11.3 ± 0.683 µM | – |
| (R)-deprenyl [reference compound] | – | – | – | residual MAO-B activity after dialysis (% of negative control) (MAO-B [4]): 3.1% |
| O=C1COc2cc(OCCc3ccc(Br)cc3)ccc21 [5r, 6-[2-(4-Bromophenyl)ethoxy]-2H-1-benzofuran-3-one] | 0.564 ± 0.049 µM | 4.7 | 2.65 ± 0.629 µM | – |
| O=C1COc2cc(OCc3cccc(F)c3)ccc21 [5c, 6-(3-Fluorobenzyloxy)-2H-1-benzofuran-3-one] | 0.136 ± 0.03 µM | 593 | 80.7 ± 9.22 µM | – |
| Cc1ccc(COc2ccc3c(c2)OCC3=O)cc1 [5l, 6-(4-Methylbenzyloxy)-2H-1-benzofuran-3-one] | 0.054 ± 0.011 µM | >1,852 | > 100 µM | – |
| O=C1COc2cc(OCc3cccc(Cl)c3)ccc21 [5e, 6-(3-Chlorobenzyloxy)-2H-1-benzofuran-3-one] | 0.012 ± 0.003 µM | 1,558 | 18.7 ± 7.82 µM | – |
| O=C1COc2cc(OCCCc3ccccc3)ccc21 [5p, 6-(3-Phenylpropoxy)-2H-1-benzofuran-3-one] | 0.055 ± 0.008 µM | 215 | 11.8 ± 0.93 µM | – |
| O=C1COc2cc(OCCc3ccccc3)ccc21 [5o, 6-(2-Phenylethoxy)-2H-1-benzofuran-3-one] | 0.107 ± 0.01 µM | 129 | 13.8 ± 2.11 µM | – |
| N#Cc1cccc(COc2ccc3c(c2)OCC3=O)c1 [5k, 6-(3-Cyanobenzyloxy)-2H-1-benzofuran-3-one] | 0.166 ± 0.015 µM | 3.5 | 0.586 ± 0.133 µM | fold more potent MAO-A inhibitor than toloxatone (MAO-A [5]): sixfold; residual MAO-A activity after dialysis (% of negative control) (MAO-A [6]; inhibitor at 4× IC50): 109%; reversibility of MAO-A inhibition (MAO-A [6]; dialysis 24 hours): reversible; residual MAO-A activity of undialyzed mixtures (% of negative control) (MAO-A [6]; [10]): 65% |
| NCCC(=O)c1ccccc1N [kynuramine] | – | – | – | Km (MAO-B [7]): 29 µM; Km (MAO-A [8]): 41 µM |
| O=C1COc2cc(OCc3ccccc3)ccc21 [5a, 6-(Benzyloxy)-2H-1-benzofuran-3-one] | 0.062 ± 0.011 µM | 431 | 26.7 ± 0.351 µM | – |
| C#CCN(C)Cc1ccccc1 [pargyline, reference compound] | – | – | – | residual MAO-A activity after dialysis (% of negative control) (MAO-A [6]; inhibitor at 4× IC50): 1.6% |
| O=C1COc2cc(OCc3ccc(C(F)(F)F)cc3)ccc21 [5n, 6-[4-(Trifluoromethyl)benzyloxy]-2H-1-benzofuran-3-one] | 0.039 ± 0.005 µM | >2,564 | > 100 µM | – |
| O=C1COc2cc(OCc3cccc(I)c3)ccc21 [5i, 6-(3-Iodobenzyloxy)-2H-1-benzofuran-3-one] | 0.007 ± 0.001 µM | 1,081 | 7.57 ± 1.82 µM | – |
| O=C1COc2cc(OCc3ccc(Cl)cc3)ccc21 [5d, 6-(4-Chlorobenzyloxy)-2H-1-benzofuran-3-one] | 0.019 ± 0.007 µM | 115 | 2.19 ± 0.135 µM | – |
| O=C1COc2cc(O)ccc21 [compound 6, 6-Hydroxy-3-coumaranone, reference compound] | 12 ± 4.21 µM | – | > 100 µM | fold weaker as MAO-B inhibitor compared to 5a (MAO-B [2]; from IC50 values): 193 fold |
| O=C1COc2cc(OCCOc3ccccc3)ccc21 [5q, 6-(2-Phenoxyethoxy)-2H-1-benzofuran-3-one] | 0.05 ± 0.006 µM | >2,000 | > 100 µM | – |
| Cc1cccc(COc2ccc3c(c2)OCC3=O)c1 [5m, 6-(3-Methylbenzyloxy)-2H-1-benzofuran-3-one] | 0.096 ± 0.003 µM | 646 | 62 ± 16.9 µM | – |
| O=C1COc2cc(OCc3ccc(I)cc3)ccc21 [5h, 6-(4-Iodobenzyloxy)-2H-1-benzofuran-3-one] | 0.028 ± 0.006 µM | – | > 100 µM | – |
| N#Cc1ccc(COc2ccc3c(c2)OCC3=O)cc1 [5j, 6-(4-Cyanobenzyloxy)-2H-1-benzofuran-3-one] | 0.079 ± 0.019 µM | 63 | 5.01 ± 0.919 µM | – |
| Cc1cccc(CCOc2ccc3c(c2)OCC3=O)c1 [5t, 6-[2-(3-Methylphenyl)ethoxy]-2H-1-benzofuran-3-one] | 0.181 ± 0.021 µM | 143 | 25.9 ± 8.72 µM | – |
| O=C1COc2cc(OCc3cccc(Br)c3)ccc21 [5g, 6-(3-Bromobenzyloxy)-2H-1-benzofuran-3-one] | 0.004 ± 0.001 µM | 980 | 3.92 ± 0.827 µM | residual MAO-B activity after dialysis (% of negative control) (MAO-B [4]): 87%; reversibility of MAO-B inhibition (MAO-B [4]; dialysis 24 hours): reversible MAO-B inhibitor; residual MAO-B activity of undialyzed mixtures (% of negative control) (MAO-B [4]; [10]): 42%; Ki (MAO-B [9]): 0.0034 ± 0.0003 µM; fold more potent MAO-B inhibitor than lazabemide (MAO-B [2]; from IC50 values): 22 fold |
| O=C1COc2cc(OCc3ccc(F)cc3)ccc21 [5b, 6-(4-Fluorobenzyloxy)-2H-1-benzofuran-3-one] | 0.022 ± 0.003 µM | 518 | 11.4 ± 2.54 µM | – |
| O=C1COc2cc(OCc3ccc(Br)cc3)ccc21 [5f, 6-(4-Bromobenzyloxy)-2H-1-benzofuran-3-one] | 0.016 ± 0.003 µM | 175 | 2.8 ± 0.079 µM | – |
